From US20240228467A1, “INDIRUBIN COMPOUNDS AND METHODS THEREOF” (JAWAHARLAL NEHRU CENTRE FOR ADVANCED SCIENTIFIC RESEARCH, priority 2021, published 2024)

System: HeLa and/or SH-SY5Y cells
Assay: Autophagic flux, RFP-EGFP-LC3 assay (fluorescent analysis, FIG. 1)
Assay type: cell-based
Conditions: compared to the growth media control
Excerpt: Autophagic flux refers to a measure of autophagic degradation activity. FIG. 1 depicts the fluorescent analysis of the autophagic flux in the presence of 6-bromoindirubin oxime (6-BIO), 6-MIO, and compounds of Formula I—compounds ‘a’ and ‘m’. FIG. 1 depicts that both autophagosomes and autolysosomes are increased with the compounds of Formula I when compared to the growth media control.
The assays were essentially performed as follows: RFP-EGFP-LC3 assay: sub-confluent HeLa and/or SH-SY5Y cells were seeded into 60 mm cell culture dishes, then transfected with ptf LC3 construct and/or siRNA and allowed to express for 48 h. Cells were trypsinized, seeded again on poly-D-lysine coated cover slips in a 12 or 24 well plates and allowed to attach. After appropriate treatments, the coverslips containing cells were processed for imaging. For immunofluorescent antibody staining, the cover slips were incubated in primary antibody at 4° C. for overnight followed by secondary antibody incubation at room temperature. For imaging the mammalian cells, after appropriate treatments, coverslips containing cells were fixed using 4% paraformaldehyde (PFA; Sigma) and then permeabilized using Triton X-100 (0.2%, HiMedia). Coverslips were mounted on slide using antifade, Vectashield mounting medium (Vector Laboratories). Images were acquired using DeltaVision Elite widefieldmicroscope (API, GE) with following filters: FITC (490/20 and 529/38), TRITC (542/27 and 594/45) and Cy5 (632/22 and 676/34). Acquired images were processed using DV softWoRX software. In this standard assay, the autophagosomes would appear as yellow whereas autolysosomes would be red as EGFP gets quenched at lysosomal acidic pH6.

O=C1Nc2cc(Br)ccc2/C1=C1/Nc2ccccc2/C1=N\O.[Li] [a, (2Z,3E)-6′-bromo-3-(hydroxyimino)-[2,3′-biindolinylidene]-2′-one lithium salt]
autolysosomes: increased
autophagosomes: increased

O=C1Nc2cc(Br)ccc2/C1=C1/Nc2ccccc2/C1=N\OCCO [m, (2Z,3E)-6′-bromo 3-((2-hydroxyethoxy)imino)-[2,3′-biindolinylidene]-2′-one]
autolysosomes: increased
autophagosomes: increased
